This is an account of results in patent US9314510B2, “Human laminin α2 chain LG3 domain and active peptides promoting cell adhesion, spreading, migration, and neurite outgrowth” (SNU R&DB Foundation, priority 2011, dated 2016).

Experiment [1] relates to PC12 cells. Briefly: Cell migration assay (transwell migration chambers). It is filed as cell-based, rat. The note with it: transwell filters coated with laminin 5 μg/mL, rLG proteins 25 μg/mL or peptides 62.5 μg/mL, 24 h. As to the method:
Cell migration assays were performed using transwell migration chambers of 8 μm in pore size (Corning Inc., NY) as described in a paper published previously by the present inventors (Kim, J. M., Min, S. K., Kim, H., Kang, H. K., Jung, S. Y., Lee, S. H., Choi, Y., Roh, S., Jeong, D., and Min, B. M. (2007) Int. J. Mol. Med.).
The lower sides of transwell filters were coated with laminin (5 μg/mL) or rLG proteins (25 μg/mL) for 12 h at 4° C. The lower sides of transwell filters were blocked with 1% BSA in PBS for 1 h at 37° C. Cells were suspended at a density of 4×10^5 cells/mL in RPMI 1640 medium containing 0.5% FBS and 0.1% BSA. 100 μL of this suspension was seeded in the upper chamber of the transwell filter. Cells were allowed to migrate for 24 h at 37° C. and then fixed with 10% formalin for 15 min and stained with 0.5% crystal violet. Non-migrated cells in the upper chamber of transwell filters were removed with a cotton swab, viewed under a light microscope, and counted.
(§1) Specifically, to observe cell adhesion, spreading, migration, and neurite outgrowth promotion, the methods described in Experimental examples <2-1> to <2-3> were used and PC12 cells were cultured on plates coated with laminin (5 μg/mL), rLG3 (25 μg/mL), and rLG3-M1 (25 μg/mL) and observed. To observe cell adhesion, PC12 cells were incubated on the coated plates for 1 h and to observe cell spreading, PC12 cells were incubated on the coated plates for 3 h. To observe cell migration, PC12 cells were incubated on the coated plates for […].

In experiment [2] the test system is PC12 cells. Briefly: Cell adhesion assay on coated plates (crystal violet, absorbance 570 nm). It is filed as cell-based, rat. The note with it: 1 h, serum-free; for cell adhesion: PC12 cells on coated plates, laminin 5 μg/mL, rLG proteins 25 μg/mL, peptides 62.5 μg/mL (0 to 125 μg/mL in FIG. 2B). As to the method: The cell adhesion assay was performed as described in a paper published previously by the present inventors (Kim, J. M., et al, Exp. Cell Res, 2005).
Specifically, 24-well culture plates (Nunc, Denmark) were coated with 5 μg/mL human placental laminin (Sigma-Aldrich, St. Louis, Mo.) or 25 μg/mL rLG domain proteins for 12 h at 4° C. The peptides were also coated on the plates by drying for 12 h at room temperature. The substrate-coated plates were blocked with 1% heat-inactivated bovine serum albumin (BSA) in PBS for 1 h at 37° C. and then washed with PBS.
The cells were trypsinized with trypsin/EDTA and resuspended in serum-free culture medium. The cells were added at a density of 2×10^5 cells/500 μL to each plate and incubated in serum-free culture medium for 1 h at 37° C. After incubation, unattached cells were removed by rinsing twice with PBS. The attached cells were fixed with 10% formalin for 15 min and then stained with 0.5% crystal violet for 1 h. Plates were gently washed with distilled water three times and dissolved with 2% SDS for 5 min. Absorbance was measured at 570 nm using a microplate reader (BioRad).
First, PC12 cells were cultured on plates coated with varying amounts of five kinds of Ln2-PG3 peptides and then cell adhesion was observed. The peptides were coated in concentrations ranging from 0 to 125 μg/mL on plates by drying them for 12 h at room temperature.
The present inventors compared the cellular activities of Ln2-LG3-P2 peptide to scrambled peptide (SEQ ID NO:20, NWEIRCIPGNPF) of Ln2-LG3-P2 peptide and Ln2-LG3-P1 peptide to Ln2-LG3-P5 peptide at a concentration of 62.5 μg/mL where the cell adhesion activity was the maximum. […] PC12 cells were cultured on plates which were coated in the same way for 3 h in serum-free medium and the cell spreading was observed.
as §1
(§2) To measure cell adhesion, spreading, migration, and neurite outgrowth promotive activities of PC12 cells using the prepared synthetic peptides that are N- and C-terminal truncated or C-terminal added peptides of the Ln2-LG3-P2 peptide, peptides described in Table 1 were coated onto plates at 62.5 μg/mL and PC12 cells were seeded thereon.

Experiment [3] deals with PC12 cells. Briefly: Cell adhesion inhibition assay: peptide pretreatment, adhesion to rLG3-coated plates. The following applies: rLG3 25 μg/mL, 1 h. The class given is cell-based, rat. As to the method:
Specifically, PC12 cells were pretreated with the Ln2-LG3-P2 peptide in concentrations of 0, 0.2, 0.4, 0.6, 0.8, 1.0, or 1.2 μg/mL for 10 min at room temperature and then cultured on plates coated with rLG3 (25 μg/mL) for 1 h in serum-free medium.
(§3) PC12 cells were pretreated with 500 μg/mL of Ln2-LG3-P1, Ln2-LG3-P2, Ln2-LG3-P3, Ln2-LG3-P4, Ln2-LG3-P5 and SP (scramble peptide) (SEQ ID NO:20) for 10 min at room temperature and then cultured on plates coated with rLG3 (25 μg/mL) in serum-free medium. To observe cell adhesion, PC12 cells were incubated on the coated plates for 1 h and to observe cell spreading, PC12 cells were incubated on the coated plates for 3 h. To observe cell migration, cells were seed into the upper chamber of transwell filters coated with rLG3 (25 μg/mL) and cultured for 24 h. Cell migration was quantified by counting the number of cells that had migrated through the filter.
Specifically, PC12 cells were pretreated with Ln2-LG2-P2 (500 μg/mL) and Ln2-LG3-P2A (500 μg/mL) and then, cell adhesion was observed on plates coated with rLG3 (25 μg/mL).

Experiment [4] relates to PC12 cells. Briefly: Inhibition of cell migration to rLG3 by peptide pretreatment. The class given is cell-based, rat. The following applies: PC12 cells pretreated with 500 μg/mL peptide, transwell coated with rLG3 25 μg/mL, 24 h. As for the experimental part:
as §3

The next experiment deals with Schwann cells. Briefly: Schwann cell spreading on coated plates. The class given is cell-based, human. The following applies: plates coated with 62.5 μg/mL peptide, 3 h. As for the experimental part:
Schwann cells, nerve cells used in the present invention, were obtained from human skin-derived precursors by differentiating the cells toward the Schwann cell lineage for two weeks and identified by immunocytochemical markers specific to Schwann cells, such as S100D and glial fibrillary acidic protein (GFAP) (Biernaskie, J. A. et al., Nat. Protoc., 2006).
Schwann cells were cultured on plates which were coated in the same way for 3 h in serum-free medium and the cell spreading of Schwann cells was observed.

Experiment [5] deals with PC12 cells. Briefly: Summary of cell adhesion, spreading, migration and neurite outgrowth promotive effects. It is filed as cell-based, rat. The following applies: summary statement of the description. As to the method:
as §2

For experiment [6], the system named is PC12 cells. Briefly: Neurite outgrowth assay. It is filed as cell-based, rat. The following applies: PC12 cells on coated plates, serum-free, 24 h + 72 h. As to the method: Laminin, rLG domain protein, and the peptide were coated onto plates and cells were seeded on the plates in serum-free medium and incubated for 24 h. After changing with serum-free medium again, cells were further cultured for 72 h and neurite outgrowth was examined.

Ends that are not written are not given here.

For the molecule laminin [reference compound], in the experiment with PC12 cells [1], the cell migration entry is on record as “promoted cell migration”. Further, the cell adhesion entry in the experiment with PC12 cells [2] is “promoted cell adhesion”.

For “RNIPPFEGCIWN (RNIPPFEGCIWN-NH2; listed as Homo sapiens) [Ln2-LG3-P2, 12-mer peptide, position 2675 to 2686 in human laminin α2 chain]”, the “cell adhesion to rLG3 after peptide pretreatment” value in the experiment with PC12 cells [3] (PC12 cells pretreated with 0 to 1.2 μg/mL peptide for 10 min) was “decreased in a dose-dependent manner”. Further, the “inhibition of cell adhesion to rLG3 protein” value in the experiment on PC12 cells [3] (PC12 cells pretreated with 500 μg/mL peptide) was “approximately 40%”. Besides, the “inhibition of cell migration to rLG3 protein” value with PC12 cells [4] is “inhibited cell spreading and migration”. Also, the Schwann cell spreading entry with Schwann cells is “substantially higher spreading than BSA or scrambled peptide”. The “reduction of Schwann cell spreading compared to laminin” value in the experiment with Schwann cells (laminin 5 μg/mL) is listed as “approximately 50%”. For the same molecule, in the experiment on PC12 cells [1], the cell migration entry was “comparable to that of rLG3”. In the experiment on PC12 cells [2], the cell adhesion entry is listed as “promoted the cell adhesion”. Besides, in the experiment on PC12 cells [2] (PC12 cells), the “coating concentration at which cell adhesion activity reached the maximum level” value was 62.5 µg/mL. Moreover, in the experiment with PC12 cells [5], the “cell adhesion, spreading, migration, and neurite outgrowth promotive effects” value is “occurred the most actively”.

B1: rLG3: recombinant His6-tagged human laminin α2 chain LG3 domain, amino acids 2537 to 2745 (protein, listed as Homo sapiens)
chain: VELSPVPIDVGTEINLSFSTKNESGIILLGSGGTPAPPRRKRRQTGQAYYVILLNRGRLEVHLSTGARTMRKIVIRPEPNLFHDGREHSVHVERTRGIFTVQVDENRRYMQNLTVEQPIEVKKLFVGGAPPEFQPSPLRNIPPFEGCIWNLVINSVPMDFARPVSFKNADIGRCAHQKLREDEDGAAPAEIVIQPEPVPTPAFPTPTPV
modifications: His6 tag
As to B1, in the experiment with PC12 cells [1], the cell migration entry is given as “induced cell migration significantly”. In addition, the cell adhesion entry in the experiment with PC12 cells [2] is “adhered to rLG1, rLG3, and rLG4 in a dose-dependent manner”. Moreover, the neurite outgrowth result in the experiment on PC12 cells [6] was “supports cell adhesion, spreading, migration, and neurite outgrowth”.
